15 compounds from patent publication US20110190280A1, “Thiazole And Oxazole Kinase Inhibitors” (priority 2007, published 2011) can be followed below.

In one experiment the target is B-Raf (Homo sapiens, UniProt P15056). Kind of experiment: B-Raf Accelerated MEK ATPase assay (BRAMA). Type of experiment: biochemical. The method in brief: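 B-Raf activity read as intrinsic MEK ATPase: catalytic activated RAF with non-phosphorylated MEK drives ADP formation, coupled through pyruvate kinase and lactate dehydrogenase to NADH oxidation, independent of ERK phosphorylation.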

Another experiment has as its system A375P tumor cells. The experiment can be described thus: Cell growth inhibition assay (CellTiter-Glo), A375P.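 Further: total ATP luminescence used as proxy for cell number, serial threefold compound dilutions at 0.2% DMSO, growth inhibition expressed versus DMSO vehicle-treated wells.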 Conditions: Homo sapiens, 72 h, read-out: Activity in A375P Tumor Cells.
In a further experiment the test system is HT-29 tumor cells. The experiment can be described thus: Cell growth inhibition assay (CellTiter-Glo), HT-29.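 Further: ATP content read by luminescence as proxy for cell number, growth inhibition versus DMSO vehicle wells, 0.2% DMSO final, nine serial threefold compound dilutions.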 As to conditions: Homo sapiens, HT-29, 72 h, read-out: Activity in HT-29 Tumor Cells. On the technique in general: ATP-based viability assays read luminescence as a measure of living cells.
For a further experiment, the system named is Colo205 tumor cells. Kind of experiment: Cell growth inhibition assay (CellTiter-Glo), Colo205.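 Further: growth measured via total ATP luminescence (CellTiter-Glo) as a proxy for cell number, inhibition expressed against DMSO-treated control wells, 3-day exposure at 0.2% final DMSO.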 Conditions: Homo sapiens, COLO 205, 72 h, read-out: Activity in Colo205 Tumor Cells.
The subject of the next experiment is SK-MEL-3 tumor cells. The experiment can be described thus: Cell growth inhibition assay (CellTiter-Glo), SK-MEL-3.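 Further: human melanoma cells grown with compound for 3 days in 0.2% DMSO, total ATP read by luminescence as proxy for cell number, growth inhibition versus DMSO-treated wells.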 As to conditions: Homo sapiens, SK-MEL3, 72 h, read-out: Activity in SK-MEL-3 Tumor Cells.
The test system of another experiment is SK-MEL-28 tumor cells. The experiment can be described thus: Cell growth inhibition assay (CellTiter-Glo), SK-MEL-28.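 Further: luminescent total ATP as a proxy for cell number, threefold serial dilutions at 0.2% DMSO, percent growth inhibition versus DMSO vehicle control wells.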 As to conditions: Homo sapiens, SK-MEL-28, 72 h, read-out: Activity in SK-MEL-28 Tumor Cells.
[1] abbreviates: BRAMA enzyme assay, class by pIC50, read-out: B-Raf Activity.

SMILES strings stand for the structures. Where two headings read alike, the source gives them in different places.

Procedure for HT-29 tumor cells: Cell Growth Inhibition Assays Human colon tumor cells (Colo205) were cultured in RPMI (Mediatech 50-020-PB) containing 10% FBS and 1% penicillin-streptomycin. […] Human melanoma cancer cells (A375-F11S) were cultured in RPMI (Mediatech 50-020-PB) containing 10% FBS, 1% sodium pyruvate, and 1% penicillin-streptomycin. Human colon cancer cells (HT-29) were cultured in high glucose DMEM (Mediatech 50-013-PB) containing 10% FBS and 1% penicillin-streptomycin. Human melanoma cancer cells (SK-MEL-3) were cultured in McCoy's 5A (50-025-PB) containing 15% FBS, and 1% penicillin-streptomycin. All cell lines were maintained at 37° C. in a humidified 5% CO2, 95% air incubator.
The next day, compounds were diluted as follows: For 96-well assays, 13.5 μl of compound in DMSO were diluted using nine (9) serial 1:3 dilutions of 4.5 μl in 9 μl of DMSO. Medium (270 μl/well of RPMI with 10% FBS and 1% penicillin-streptomycin) was added to the plates. Aliquots (7 μl) were added to cells in the final assay giving a final DMSO concentration of 0.2%. For 384-well assays, 15 μl of compound in DMSO were diluted using nine (9) serial 1:3 dilutions of 5 μl in 10 μl of DMSO, followed by a further dilution of 5 μl of compound with 95 μl of medium, of which 2 μl are added to cells in the final assay giving a final DMSO concentration of 0.2%. Cells were incubated at 37° C., 5% CO2 for 3 days.
Total ATP was measured (as a surrogate estimate of cell number) using CellTiter-Glo® (Promega G7571) reagent. Briefly, plates were removed from the incubator and allowed to equilibrate to room temperature for 30 minutes. CellTiter-Glo® (25 μl or 55 μl for 384-well or 96-well assays, respectively) reagent was added to each well and plates were shaken on an orbital plate shaker for 2 minutes. Plates were incubated without shaking for a further 30 minutes and read on an LJL Analyst GT reader in luminometer mode with an integration time of 0.5 seconds per well. Percent inhibition of cell growth was calculated relative to DMSO vehicle-treated control wells.

For the compound `COc1cc(OC)cc(-c2nc(NC3CC3)sc2-c2ccnc(Nc3ccc(OC4CCN(CCS(C)(=O)=O)CC4)c(F)c3)n2)c1` [Example 17, 4-[4-[3,5-Bis(methyloxy)phenyl]-2-(cyclopropylamino)-1,3-thiazol-5-yl]-N-[3-fluoro-4-({1-[2-(methylsulfonyl)ethyl]-4-piperidinyl}oxy)phenyl]-2-pyrimidinamine], the IC50 at B-Raf (setting [1]) was under 100 nM; in the experiment on A375P tumor cells it was under 500 nM; with HT-29 tumor cells, under 500 nM; with Colo205 tumor cells, under 500 nM; with SK-MEL-3 tumor cells, under 500 nM; with SK-MEL-28 tumor cells it was under 500 nM.
With `COc1cc(C)cc(-c2nc(C(C)C)oc2-c2ccnc(Nc3ccc(N4CCOCC4)nc3)n2)c1` [Example 99], the IC50 on B-Raf (setting [1]) is under 100 nM; in the experiment with A375P tumor cells, 500 to 5000 nM; in the experiment on HT-29 tumor cells it was 500 to 5000 nM; in the experiment with Colo205 tumor cells, 500 to 5000 nM; with SK-MEL-3 tumor cells, 500 to 5000 nM; in the experiment with SK-MEL-28 tumor cells, 500 to 5000 nM.
Take `CCNc1nc(-c2cc(OC)cc(OC)c2)c(-c2ccnc(Nc3ccc(N4CCN(CCF)CC4)c(F)c3)n2)o1` [Example 117]: the IC50 on B-Raf (setting [1]) was under 100 nM; in the experiment on A375P tumor cells it was 500 to 5000 nM; in the experiment with HT-29 tumor cells it was 500 to 5000 nM; with Colo205 tumor cells, under 500 nM; in the experiment on SK-MEL-3 tumor cells, 500 to 5000 nM; with SK-MEL-28 tumor cells it was 500 to 5000 nM.
On to `CCNc1nc(-c2cc(C)cc(OC)c2)c(-c2ccnc(Nc3ccc(N4CCOCC4)c(C(F)(F)F)c3)n2)s1` [Example 25, 4-{2-(Ethylamino)-4-[3-methyl-5-(methyloxy)phenyl]-1,3-thiazol-5-yl}-N-[4-(4-morpholinyl)-3-(trifluoromethyl)phenyl]-2-pyrimidinamine], for which the IC50 on B-Raf (setting [1]) is under 100 nM; in the experiment with A375P tumor cells, under 500 nM; in the experiment with HT-29 tumor cells, under 500 nM; in the experiment with Colo205 tumor cells, 500 to 5000 nM; in the experiment on SK-MEL-3 tumor cells, under 500 nM; in the experiment with SK-MEL-28 tumor cells it was 500 to 5000 nM.
Turning to `CCNc1nc(-c2cc(C)cc(OC)c2)c(-c2ccnc(Nc3ccc(N4CCN(CCF)CC4)c(F)c3)n2)o1` [Example 128], the IC50 was under 100 nM against B-Raf; 500 to 5000 nM in the experiment with A375P tumor cells; 500 to 5000 nM in the experiment on HT-29 tumor cells; under 500 nM in the experiment with Colo205 tumor cells; 500 to 5000 nM in the experiment with SK-MEL-3 tumor cells; 500 to 5000 nM in the experiment on SK-MEL-28 tumor cells.
For the compound `CCNc1nc(-c2cc(OC)cc(OC)c2)c(-c2ccnc(Nc3ccc(N4CCS(=O)(=O)CC4)c(F)c3)n2)s1` [Example 9, 4-[4-[3,5-Bis(methyloxy)phenyl]-2-(ethylamino)-1,3-thiazol-5-yl]-N-[4-(1,1-dioxido-4-thiomorpholinyl)-3-fluorophenyl]-2-pyrimidinamine], the IC50 on B-Raf (setting [1]) was under 100 nM; in the experiment on A375P tumor cells it was 500 to 5000 nM; in the experiment with HT-29 tumor cells, under 500 nM; in the experiment with Colo205 tumor cells, 500 to 5000 nM; with SK-MEL-3 tumor cells it was under 500 nM; in the experiment on SK-MEL-28 tumor cells it was under 500 nM.
In the case of `COc1cc(C)cc(-c2nc(C(C)C)sc2-c2ccnc(Nc3ccc(N4CCN(CCS(C)(=O)=O)CC4)c(F)c3)n2)c1` [Example 62, N-(3-Fluoro-4-{4-[2-(methylsulfonyl)ethyl]-1-piperazinyl}phenyl)-4-{2-(1-methylethyl)-4-[3-methyl-5-(methyloxy)phenyl]-1,3-thiazol-5-yl}-2-pyrimidinamine], the IC50 is under 100 nM at B-Raf (setting [1]); under 500 nM with A375P tumor cells; under 500 nM in the experiment on HT-29 tumor cells; 500 to 5000 nM with Colo205 tumor cells; under 500 nM in the experiment on SK-MEL-3 tumor cells; 500 to 5000 nM in the experiment with SK-MEL-28 tumor cells.
On to `COc1cc(C)cc(-c2nc(C(C)C)oc2-c2ccnc(Nc3ccc(N4CCN(CCS(C)(=O)=O)CC4)c(F)c3)n2)c1` [Example 102], for which the IC50 on B-Raf (setting [1]) is under 100 nM; with A375P tumor cells, 500 to 5000 nM; with HT-29 tumor cells, under 500 nM; in the experiment on Colo205 tumor cells it was under 500 nM; with SK-MEL-3 tumor cells it was under 500 nM; with SK-MEL-28 tumor cells, 500 to 5000 nM.
For `CNc1nc(-c2cc(OC)cc(OC)c2)c(-c2ccnc(Nc3ccc(OCCN4CCCC4)c(Cl)c3)n2)s1` [Example 20, 4-[4-[3,5-Bis(methyloxy)phenyl]-2-(methylamino)-1,3-thiazol-5-yl]-N-(3-chloro-4-{[2-(1-pyrrolidinyl)ethyl]oxy}phenyl)-2-pyrimidinamine], the IC50 was under 100 nM on B-Raf (setting [1]); under 500 nM in the experiment on A375P tumor cells; under 500 nM in the experiment with HT-29 tumor cells; under 500 nM in the experiment on Colo205 tumor cells; under 500 nM in the experiment on SK-MEL-3 tumor cells; under 500 nM in the experiment with SK-MEL-28 tumor cells.
As to `COc1cc(OC)cc(-c2nc(NC3CCC3)sc2-c2ccnc(Nc3ccc(OC4CCN(CCS(C)(=O)=O)CC4)c(F)c3)n2)c1` [Example 22, 4-[4-[3,5-Bis(methyloxy)phenyl]-2-(cyclobutylamino)-1,3-thiazol-5-yl]-N-[3-fluoro-4-({1-[2-(methylsulfonyl)ethyl]-4-piperidinyl}oxy)phenyl]-2-pyrimidinamine], the IC50 on B-Raf (setting [1]) is under 100 nM; in the experiment with A375P tumor cells it was under 500 nM; with HT-29 tumor cells it was under 500 nM; in the experiment with Colo205 tumor cells it was under 500 nM; with SK-MEL-3 tumor cells, under 500 nM; with SK-MEL-28 tumor cells it was under 500 nM.
On to `CCNc1nc(-c2cc(C)cc(OC)c2)c(-c2ccnc(Nc3ccc(OCCOC)c(F)c3)n2)s1` [Example 38, 4-{2-(Ethylamino)-4-[3-methyl-5-(methyloxy)phenyl]-1,3-thiazol-5-yl}-N-(3-fluoro-4-{[2-(methyloxy)ethyl]oxy}phenyl)-2-pyrimidinamine], for which the IC50 at B-Raf (setting [1]) is under 100 nM; in the experiment with A375P tumor cells, under 500 nM; in the experiment with HT-29 tumor cells, under 500 nM; with Colo205 tumor cells it was under 500 nM; with SK-MEL-3 tumor cells, under 500 nM; in the experiment with SK-MEL-28 tumor cells, 500 to 5000 nM.
`COc1cc(C)cc(-c2nc(C(C)C)oc2-c2ccnc(Nc3ccc(N4CCN(C(C)=O)CC4)nc3)n2)c1` [Example 98]: the IC50 on B-Raf (setting [1]) is under 100 nM; with A375P tumor cells it was 500 to 5000 nM; in the experiment on HT-29 tumor cells, 500 to 5000 nM; in the experiment on Colo205 tumor cells, under 500 nM; in the experiment with SK-MEL-3 tumor cells, under 500 nM; in the experiment on SK-MEL-28 tumor cells it was 500 to 5000 nM.
As to `CCNc1nc(-c2ccc3c(c2)OCO3)c(-c2ccnc(Nc3ccc(N4CCN(C(C)=O)CC4)nc3)n2)s1` [Example 53, N-[6-(4-Acetyl-1-piperazinyl)-3-pyridinyl]-4-[4-(1,3-benzodioxol-5-yl)-2-(ethylamino)-1,3-thiazol-5-yl]-2-pyrimidinamine], the IC50 at B-Raf (setting [1]) was under 100 nM; in the experiment with A375P tumor cells, under 500 nM; in the experiment with HT-29 tumor cells it was under 500 nM; with Colo205 tumor cells it was under 500 nM; in the experiment on SK-MEL-3 tumor cells, under 500 nM; in the experiment with SK-MEL-28 tumor cells it was 500 to 5000 nM.
Regarding `CCNc1nc(-c2cc(C)cc(OC)c2)c(-c2ccnc(Nc3ccc4c(c3)CS(=O)(=O)C4)n2)s1` [Example 14, N-(2,2-Dioxido-1,3-dihydro-2-benzothien-5-yl)-4-{2-(ethylamino)-4-[3-methyl-5-(methyloxy)phenyl]-1,3-thiazol-5-yl}-2-pyrimidinamine], the IC50 was under 100 nM on B-Raf (setting [1]); under 500 nM with A375P tumor cells; under 500 nM in the experiment on HT-29 tumor cells; under 500 nM with Colo205 tumor cells; under 500 nM with SK-MEL-3 tumor cells; 500 to 5000 nM in the experiment with SK-MEL-28 tumor cells.
For the compound `CCNc1nc(-c2cc(OC)cc(OC)c2)c(-c2ccnc(Nc3ccc(N4CCN5CCCCC5C4)c(F)c3)n2)s1` (stereo not drawn) [Example 115], the IC50 on B-Raf (setting [1]) is under 100 nM; in the experiment on A375P tumor cells, 500 to 5000 nM; in the experiment on HT-29 tumor cells, under 500 nM; in the experiment with Colo205 tumor cells, under 500 nM; in the experiment with SK-MEL-3 tumor cells, under 500 nM; in the experiment with SK-MEL-28 tumor cells, 500 to 5000 nM.
